What was measured:
Settings in all cases: exposure time: 72 h
E28 [1] = patient-derived glioblastoma stem cells of classical subtype; test: surviving fraction (nuclei count normalised to DMSO); higher = more cells surviving (less toxic)
E31 [2] = patient-derived glioblastoma stem cells of proneural subtype; test: as above
E21 [3] = patient-derived glioblastoma stem cells of mesenchymal subtype; test: as above
E57 [4] = patient-derived glioblastoma stem cells of mesenchymal subtype; test: as above
FT3469 [5] = normal neural stem cell line; test: as above
E34 [6] = patient-derived glioblastoma stem cells of proneural subtype; test: as above
E13 [7] = patient-derived glioblastoma stem cells of classical subtype; test: as above
E28 [8] = test: phenotypic distance (Euclidean, principal components) from DMSO controls (arbitrary units); higher = stronger morphological change
E31 [9] = test: as above
E21 [10] = test: as above
E57 [11] = test: as above
FT3469 [12] = test: as above
E34 [13] = test: as above
E13 [14] = test: as above
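Throughout, for phenotypic distance (Euclidean, principal components) from DMSO controls: cell Painting imaging in 384-well plates, CellProfiler features reduced to at least 20 principal components, Euclidean distance versus same-plate DMSO vehicle wells (0.1% v/v), median over six images per well.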
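Throughout, for surviving fraction (nuclei count normalised to DMSO): nuclei counted by high-content imaging of Hoechst-stained cells in laminin-coated 384-well plates, relative to 0.1% DMSO vehicle wells, with staurosporine as cell-death control.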

OCCN1C[C@H](O)[C@@H](O)[C@H](O)[C@H]1CO [Miglitol]
Settings	phenotypic distance	surviving fraction
E13 [7], 4.11523 nM	–	0.886
E13 [7], 12.34567901 nM	–	0.888
E13 [7], 37.037 nM	–	0.938
E13 [7], 111.1111111 nM	–	0.955
E13 [7], 333.333 nM	–	0.951
E13 [7], 1000 nM	–	0.889
E13 [7], 3000 nM	–	0.98
E13 [14], 4.11523 nM	0.578	–
E13 [14], 12.34567901 nM	0.499	–
E13 [14], 37.037 nM	0.296	–
E13 [14], 111.1111111 nM	0.445	–
E13 [14], 333.333 nM	0.7	–
E13 [14], 1000 nM	0.441	–
E13 [14], 3000 nM	0.584	–
E21 [3], 4.11523 nM	–	0.916
E21 [3], 12.34567901 nM	–	0.86
E21 [3], 37.037 nM	–	0.996
E21 [3], 111.1111111 nM	–	0.946
E21 [3], 333.333 nM	–	0.949
E21 [3], 1000 nM	–	0.914
E21 [3], 3000 nM	–	0.993
E21 [10], 4.11523 nM	0.913	–
E21 [10], 12.34567901 nM	0.734	–
E21 [10], 37.037 nM	0.73	–
E21 [10], 111.1111111 nM	0.986	–
E21 [10], 333.333 nM	0.413	–
E21 [10], 1000 nM	0.51	–
E21 [10], 3000 nM	0.737	–
E28 [1], 4.11523 nM	–	0.997
E28 [1], 12.34567901 nM	–	0.913
E28 [1], 37.037 nM	–	1.12
E28 [1], 111.1111111 nM	–	0.877
E28 [1], 333.333 nM	–	1.06
E28 [1], 1000 nM	–	1.14
E28 [1], 3000 nM	–	1.03
E28 [8], 4.11523 nM	0.488	–
E28 [8], 12.34567901 nM	0.943	–
E28 [8], 37.037 nM	1.54	–
E28 [8], 111.1111111 nM	0.838	–
E28 [8], 333.333 nM	0.651	–
E28 [8], 1000 nM	0.777	–
E28 [8], 3000 nM	0.637	–
E31 [2], 4.11523 nM	–	0.768
E31 [2], 12.34567901 nM	–	1.15
E31 [2], 37.037 nM	–	0.954
E31 [2], 111.1111111 nM	–	0.999
E31 [2], 333.333 nM	–	1.01
E31 [2], 1000 nM	–	1.17
E31 [2], 3000 nM	–	0.956
E31 [9], 4.11523 nM	0.64	–
E31 [9], 12.34567901 nM	0.762	–
E31 [9], 37.037 nM	0.853	–
E31 [9], 111.1111111 nM	0.501	–
E31 [9], 333.333 nM	0.613	–
E31 [9], 1000 nM	0.778	–
E31 [9], 3000 nM	0.647	–
E34 [6], 4.11523 nM	–	0.825
E34 [6], 12.34567901 nM	–	1.07
E34 [6], 37.037 nM	–	0.964
E34 [6], 111.1111111 nM	–	1.17
E34 [6], 333.333 nM	–	1.04
E34 [6], 1000 nM	–	0.915
E34 [6], 3000 nM	–	1.14
E34 [13], 4.11523 nM	0.65	–
E34 [13], 12.34567901 nM	0.713	–
E34 [13], 37.037 nM	0.625	–
E34 [13], 111.1111111 nM	0.702	–
E34 [13], 333.333 nM	0.456	–
E34 [13], 1000 nM	0.679	–
E34 [13], 3000 nM	0.758	–
E57 [4], 4.11523 nM	–	1.03
E57 [4], 12.34567901 nM	–	1.03
E57 [4], 37.037 nM	–	1.06
E57 [4], 111.1111111 nM	–	0.966
E57 [4], 333.333 nM	–	0.955
E57 [4], 1000 nM	–	0.997
E57 [4], 3000 nM	–	1.1
E57 [11], 4.11523 nM	0.469	–
E57 [11], 12.34567901 nM	0.849	–
E57 [11], 37.037 nM	0.936	–
E57 [11], 111.1111111 nM	0.643	–
E57 [11], 333.333 nM	0.643	–
E57 [11], 1000 nM	0.624	–
E57 [11], 3000 nM	0.981	–
FT3469 [5], 4.11523 nM	–	0.878
FT3469 [5], 12.34567901 nM	–	0.954
FT3469 [5], 37.037 nM	–	0.984
FT3469 [5], 111.1111111 nM	–	0.963
FT3469 [5], 333.333 nM	–	1.06
FT3469 [5], 1000 nM	–	1.07
FT3469 [5], 3000 nM	–	1.14
FT3469 [12], 4.11523 nM	3.01	–
FT3469 [12], 12.34567901 nM	0.609	–
FT3469 [12], 37.037 nM	0.908	–
FT3469 [12], 111.1111111 nM	0.767	–
FT3469 [12], 333.333 nM	0.996	–
FT3469 [12], 1000 nM	0.816	–
FT3469 [12], 3000 nM	0.734	–

O=C1c2c(O)ccc(O)c2C(=O)c2c(NCCNCCO)ccc(NCCNCCO)c21 [Mitoxantrone]
Settings	phenotypic distance	surviving fraction
E13 [7], 4.1 nM	–	0.526
E13 [7], 12.3 nM	–	0.451
E13 [7], 37 nM	–	0.422
E13 [7], 111.1 nM	–	0.338
E13 [7], 333.3 nM	–	0.279
E13 [7], 1000 nM	–	0.23
E13 [7], 3000 nM	–	0.219
E13 [14], 4.1 nM	4.74	–
E13 [14], 12.3 nM	5.62	–
E13 [14], 37 nM	6.07	–
E13 [14], 111.1 nM	6.02	–
E13 [14], 333.3 nM	6.18	–
E13 [14], 1000 nM	6.49	–
E13 [14], 3000 nM	6.08	–
E21 [3], 4.1 nM	–	0.689
E21 [3], 12.3 nM	–	0.608
E21 [3], 37 nM	–	0.448
E21 [3], 111.1 nM	–	0.229
E21 [3], 333.3 nM	–	0.207
E21 [3], 1000 nM	–	0.209
E21 [3], 3000 nM	–	0.189
E21 [10], 4.1 nM	2.94	–
E21 [10], 12.3 nM	4.27	–
E21 [10], 37 nM	6.11	–
E21 [10], 111.1 nM	6.48	–
E21 [10], 333.3 nM	6.79	–
E21 [10], 1000 nM	6.1	–
E21 [10], 3000 nM	5.74	–
E28 [1], 4.1 nM	–	0.476
E28 [1], 12.3 nM	–	0.359
E28 [1], 37 nM	–	0.358
E28 [1], 111.1 nM	–	0.262
E28 [1], 333.3 nM	–	0.313
E28 [1], 1000 nM	–	0.286
E28 [1], 3000 nM	–	0.264
E28 [8], 4.1 nM	3.3	–
E28 [8], 12.3 nM	3.24	–
E28 [8], 37 nM	3.23	–
E28 [8], 111.1 nM	3.7	–
E28 [8], 333.3 nM	3.72	–
E28 [8], 1000 nM	3.17	–
E28 [8], 3000 nM	2.86	–
E31 [2], 4.1 nM	–	0.243
E31 [2], 12.3 nM	–	0.219
E31 [2], 37 nM	–	0.311
E31 [2], 111.1 nM	–	0.216
E31 [2], 333.3 nM	–	0.218
E31 [2], 1000 nM	–	0.127
E31 [2], 3000 nM	–	0.142
E31 [9], 4.1 nM	2.71	–
E31 [9], 12.3 nM	3.14	–
E31 [9], 37 nM	2.43	–
E31 [9], 111.1 nM	2.42	–
E31 [9], 333.3 nM	2.72	–
E31 [9], 1000 nM	4.39	–
E31 [9], 3000 nM	4.07	–
E34 [6], 4.1 nM	–	0.578
E34 [6], 12.3 nM	–	0.494
E34 [6], 37 nM	–	0.578
E34 [6], 111.1 nM	–	0.615
E34 [6], 333.3 nM	–	0.547
E34 [6], 1000 nM	–	0.564
E34 [6], 3000 nM	–	0.56
E34 [13], 4.1 nM	4.38	–
E34 [13], 12.3 nM	4.62	–
E34 [13], 37 nM	4.33	–
E34 [13], 111.1 nM	2.84	–
E34 [13], 333.3 nM	2.54	–
E34 [13], 1000 nM	1.99	–
E34 [13], 3000 nM	2.83	–
E57 [4], 4.1 nM	–	0.245
E57 [4], 12.3 nM	–	0.2
E57 [4], 37 nM	–	0.174
E57 [4], 111.1 nM	–	0.165
E57 [4], 333.3 nM	–	0.161
E57 [4], 1000 nM	–	0.159
E57 [4], 3000 nM	–	0.17
E57 [11], 4.1 nM	8.68	–
E57 [11], 12.3 nM	9.84	–
E57 [11], 37 nM	8.24	–
E57 [11], 111.1 nM	6.95	–
E57 [11], 333.3 nM	7.05	–
E57 [11], 1000 nM	7.26	–
E57 [11], 3000 nM	6.66	–
FT3469 [5], 4.1 nM	–	0.595
FT3469 [5], 12.3 nM	–	0.645
FT3469 [5], 37 nM	–	0.657
FT3469 [5], 111.1 nM	–	0.604
FT3469 [5], 333.3 nM	–	0.639
FT3469 [5], 1000 nM	–	0.604
FT3469 [5], 3000 nM	–	0.362
FT3469 [12], 4.1 nM	1.61	–
FT3469 [12], 12.3 nM	1.65	–
FT3469 [12], 37 nM	1.7	–
FT3469 [12], 111.1 nM	1.36	–
FT3469 [12], 333.3 nM	1.3	–
FT3469 [12], 1000 nM	2.01	–
FT3469 [12], 3000 nM	3.46	–
